Assay [1] relates to U87G cells. The assay is described as follows: BOOM conversion: prodrug + Pd0-resins in cell culture, cell viability, U87G. Type of assay: cell-based, human. The note with it: Homo sapiens, 120 h, prodrug in combination with Pd0-resins 0.8 mg/mL, 5 days, read-out: EC50, prodrug + Pd-resins. The method, then:
(§1) Following 5 days treatment, cells were incubated with PrestoBlue™ Cell Viability Reagent (Life Technologies) for 60-90 min. Fluorescence intensity values were related to the untreated cells (100% cell viability). […] Cells incubated in 0.1% (v/v) DMSO in media were used as untreated cell control.
(§2) The toxigenic effect as a result of in situ generation of parental drug in cell culture was determined by incubating all cells in tissue culture media containing 0.1% (v/v) DMSO and a) Pd^0, Au, or Pd/Au-resin (1 mg/mL for all cells tested, negative control); b) prodrug (negative control); or c) Pd^0, Au, or Pd/Au-resin (1 mg/mL for all cells)+prodrug (reaction assay). Cells incubated in 0.1% (v/v) DMSO in media was used as an untreated cell reference standard (100% viability). A PrestoBlue® cell viability assay as described above was carried out and fluorescent intensities compared to the untreated cell control.
A dose response study was performed for each cell line keeping the quantity of Pd^0 resin constant (0.8 mg/mL for U87G and 1 mg/mL for the rest of cell lines). […] Fluorescence intensity values (detected using a PerkinElmer EnVision 2101 multilabel reader with excitation filter at 540 nm and emissions filter at 590 nm) were determined relative to the untreated cell control.

The next assay deals with T98 cells. The assay is described as follows: BOOM conversion: prodrug + Pd0-resins in cell culture, cell viability, T98. The settings on record: Homo sapiens, 120 h, prodrug in combination with Pd0-resins 1 mg/mL, 5 days, read-out: EC50, prodrug + Pd-resins. Type of assay: cell-based, human. As for the experimental part: as §1
Cell viabilities for each prodrug provided as a combination with palladium is presented in FIG. 7 in the right of each set of two bars. Data for prodrug in the absence of palladium catalyst is also provided (the left bar of each set of two bars) for comparison along with negative controls (from left to right: DMSO, Pd^0 and Doxorubicin). Cells were incubated in tissue culture media containing 0.1% (v/v) DMSO and: Pd^0-resins (1 mg/mL, negative control); 1 μM of each prodrug (negative control); and Pd^0-resins (1 mg/mL)+1 μM of each prodrug (BOOM reaction assay). Cells incubated in 0.1% (v/v) DMSO in media were used as untreated cell control.
Following 5 days treatment, cells were incubated with PrestoBlue™ Cell Viability Reagent (Life Technologies) for 90 min. Fluorescence intensity values were related to the untreated cells (100% cell viability). Data are provided in FIG. 8 for cells incubated in tissue culture media containing 0.1% (v/v) DMSO and: Pd^0-resins (1 mg/mL, negative control); 0.3-3 μM of Doxorubicin prodrug for A549 and DU145 cell lines, 0.1-1 μM of Doxorubicin prodrug for T98 cell line (negative control); 0.3-3 μM of Doxorubicin for A549 and DU145 cell lines, 0.1-1 μM of Doxorubicin for T98 cell line (positive control); and Pd^0-resin (1 mg/mL)+Doxorubicin prodrug (BOOM reaction assay). Cells incubated in 0.1% (v/v) DMSO in media were used as untreated cell control.
as §2
A dose response study was performed for each cell line keeping the quantity of Pd^0 resin constant (0.8 mg/mL for U87G and 1 mg/mL for the rest of cell lines). All cells were plated in Dulbecco's Modified Eagle Media (DMEM) supplemented with serum (10% FBS) and L-glutamine (2 mM). […]

For the next assay, the system named is A549 cells. The assay is described as follows: Prodrug safety dose-response cell viability (PrestoBlue), A549. Type of assay: cell-based. The settings on record: Homo sapiens, 120 h, 5 days, no catalyst. As for the experimental part:
(§3) These cell lines were selected as these are primary malignancies against which the parental drugs are currently prescribed.
(§4) The toxicities of each active agent and prodrugs were compared by performing dose-response studies. […] Cell viability was analysed by fluoresce intensity (λex=540 nm; λem=590 nm) after 60-90 min incubation with PrestoBlue™ Reagent (Life Technologies).

Assay [2] relates to U87G cells. The assay is described as follows: Prodrug safety dose-response cell viability (PrestoBlue), U87G. The note with it: Homo sapiens, 120 h; U87G cells, 5 days, no catalyst; read-out: EC50 (cell viability). Type of assay: cell-based, human. As for the experimental part:
as §3, §4

The structures appear in SMILES notation. pEC50: −log10 of the molar value.

One may read the pEC50 as the EC50 on a negative log10 scale, so that one unit is a factor of ten.

`C#CCOc1ccc(CONC(=O)CCCCCCC(=O)Nc2ccccc2)cc1` [POB-Vor, Propargyloxybenzyl-Vorinostat]: the pEC50 in the assay on U87G cells [1] was 4.61; in the assay on T98 cells, 4.78; with A549 cells, under 3.30; in the assay with U87G cells [2], under 3.30.

The record behind these values is patent publication US20200289554A1, “BIOORTHOGONAL COMPOUNDS COMPRISING A PROPARGYL GROUP FOR TREATING CANCER” (THE UNIVERSITY COURT OF THE UNIVERSITY OF EDINBURGH, priority 2016, published 2020).
